# Measured values reported in patent US20230346670A1, “Prebiotic Oral Care Compositions and Methods” (Colgate-Palmolive Company, priority 2020, published 2023).
# Tests used:
# Type in all cases: cell-based
# [1] = test system: A. actinomycetemcomitans virulence genes; test: Virulence gene expression in multi-species biofilm (SYBR RT-qPCR)
# Experimental: (§1) Biofilms are grown vertically on Calcium Deficient Hydroxyapatite (CAD-HA) disks (Hitemco Medical, Old Bethpage, USA) using the Amsterdam Active Adhesion model. Biofilms are allowed to establish during 24 h (37° C., 170 rpm) under microaerophilic conditions (6% O2, 7% CO2, 7% H2, 80% N2). After this 24 h, disks are rinsed 3 times a day for 3 minutes (RT, 250 rpm), for 3 consecutive days, by transferring the lid containing the disks to a new 24-well plate containing 2 mL/well of the appropriate substrate solution. As a negative control, PBS (pH 5.7) without substrate supplementation is used.
# (§2) The virulence of the substrate-treated multi-species biofilms are evaluated by analyzing the relative expression of 33 genes that are recognized as being related to some form of virulence and from 4 periodontal pathogens.
# (§3) Expression of bacterial virulence genes is analyzed through SYBR RT-qPCR and normalized for bacterial housekeeping gene expression. […] These effects are illustrated in Tables 6a and 6b:
# (§4) Note, for Tables 6a and 6b, that fold changes in virulence gene expression are determined relative to the control condition through the 2^^-ΔΔCt method and are shown as the geometric mean (C.I.) (n = 3) of the 2^^-ΔΔ ^Ct values. All substrates are dissolved in PBS at a concentration of 1 M (upper part) or 1%(w/v) (lower part). Values between 0 and 1 represent relative downregulation, values >1 represent relative upregulation. […] NADG: N-acetyl-D-glucosamine; C.I.: 95% confidence interval.
# [2] = test system: P. gingivalis virulence genes; test: as above; conditions: relative to control, 2^-ΔΔCt, n = 3
# Experimental: as §1, §2, §3, §4
# P. intermedia = test: Multi-species biofilm composition, absolute abundance (Geq/mL); conditions: repeated rinsing
# Experimental: as §1
# (§5) N-acetyl-D-glucosamine (NADG), α-D-lactose, D-(+)-trehalose and D-(+)-raffinose are selected to determine their effects on multi-species biofilm composition. Repeated rinsing of the biofilms with the substrates at a concentration of 1 M results in a significant decrease in absolute numbers in at least four of the pathogenic bacterial species tested in the assay, in comparison to the control, the results of which are described in Table 1 below. Note, NADG decreased absolute numbers of S. sobrinus. Absolute abundances of bacterial species are shown as mean ± SD (n = 3) logarithmic values of the genome equivalents per millilitre (log(Geq/mL)).
# S. sobrinus = test: as above; conditions: repeated rinsing
# Experimental: as §1, §5
# S. mitis = test: as above; conditions: repeated rinsing
# Experimental: as §1, §5
# P. gingivalis = test: as above; conditions: repeated rinsing
# Experimental: as §1, §5
# A. naeslundii = test: as above; conditions: repeated rinsing
# Experimental: as §1, §5
# S. oralis = test: as above; conditions: repeated rinsing
# Experimental: as §1, §5
# A. actinomycetemcomitans = test: as above; conditions: repeated rinsing
# Experimental: as §1, §5
# S. gordonii = test: as above; conditions: repeated rinsing
# Experimental: as §1, §5
# V. parvula = test: as above; conditions: for absolute abundance of V. parvula (VP), mean ± SD log (Geq/mL): repeated rinsing
# Experimental: as §1
# (§6) N-acetyl-D-glucosamine (NADG), α-D-lactose, D-(+)-trehalose and D-(+)-raffinose are selected to determine their effects on multi-species biofilm composition. […] decrease in absolute numbers in at least four of the pathogenic bacterial species tested in the assay, in comparison to the control, the results of which are described in Table 1 below. Note, NADG decreased absolute numbers of S. sobrinus. Absolute abundances of bacterial species are shown as mean ± SD (n = 3) logarithmic values of the genome equivalents per millilitre (log(Geq/mL)).
# S. mutans = test: as above; conditions: repeated rinsing
# Experimental: as §1, §6
# F. nucleatum = test: as above; conditions: repeated rinsing
# Experimental: as §1, §6
# A. viscosus = test: as above; conditions: repeated rinsing
# Experimental: as §1, §6
# S. salivarius = test: as above; conditions: repeated rinsing
# Experimental: as §1, §6
# S. sanguinis = test: as above; conditions: repeated rinsing
# Experimental: as §1, §6
# [3] = lower part of Table 6a, substrate 1%(w/v), relative to control = 1
# [4] = substrate 1 M, relative to control = 1, 2^-ΔΔCt, n = 3
smiles,measurement,setting,value
"OC[C@H]1O[C@@H](O[C@H]2[C@H](O)[C@@H](O)[C@@H](O)O[C@@H]2CO)[C@H](O)[C@@H](O)[C@H]1O [D-lactose, α-D-lactose]","fold change in aae expression, geometric mean (95% C.I.)",[1]; [3],1.36 (0.70-2.67) fold
same,"fold change in apaH expression, geometric mean (95% C.I.)",[1]; [3],0.84 (0.29-2.49) fold
same,"fold change in cdtB expression, geometric mean (95% C.I.)",[1]; [3],0.66 (0.21-2.03) fold
same,"fold change in emaA expression, geometric mean (95% C.I.)",[1]; [3],0.34 (0.25-0.45)^∗ fold
same,"fold change in flp expression, geometric mean (95% C.I.)",[1]; [3],0.81 (0.08-7.83) fold
same,"fold change in ltxA expression, geometric mean (95% C.I.)",[1]; [3],0.04 (0.02-0.08)^∗ fold
same,"fold change in omp29 expression, geometric mean (95% C.I.)",[1]; [3],0.81 (0.73-0.89) fold
same,"fold change in omp100 expression, geometric mean (95% C.I.)",[1]; [3],0.34 (0.23-0.49)^∗ fold
same,"fold change in orf859 expression, geometric mean (95% C.I.)",[1]; [3],0.97 (0.37-2.54) fold
same,"fold change in pgA expression, geometric mean (95% C.I.)",[1]; [3],0.55 (0.41-0.74) fold
same,"fold change in vapA expression, geometric mean (95% C.I.)",[1]; [3],0.90 (0.60-1.35) fold
same,"fold change in vppA expression, geometric mean (95% C.I.)",[1]; [3],0.40 (0.14-1.15)^∗ fold
same,"fold change in aae expression, geometric mean (95% C.I.)",[1]; [4],0.03 (0.01-0.22)^∗ fold
same,"fold change in apaH expression, geometric mean (95% C.I.)",[1]; [4],0.04 (0.01-0.21)^∗ fold
same,"fold change in cdtB expression, geometric mean (95% C.I.)",[1]; [4],0.02 (0.00-0.21)^∗ fold
same,"fold change in emaA expression, geometric mean (95% C.I.)",[1]; [4],0.08 (0.06-0.11)^∗ fold
same,"fold change in flp expression, geometric mean (95% C.I.)",[1]; [4],0.44 (0.10-1.94) fold
same,"fold change in ltxA expression, geometric mean (95% C.I.)",[1]; [4],0.01 (0.00-0.08)^∗ fold
same,"fold change in omp29 expression, geometric mean (95% C.I.)",[1]; [4],0.42 (0.33-0.52)^∗ fold
same,"fold change in omp100 expression, geometric mean (95% C.I.)",[1]; [4],0.08 (0.04-0.15)^∗ fold
same,"fold change in orf859 expression, geometric mean (95% C.I.)",[1]; [4],0.05 (0.00-0.79)^∗ fold
same,"fold change in pgA expression, geometric mean (95% C.I.)",[1]; [4],4.30 (2.21-8.37)^∗ fold
same,"fold change in vapA expression, geometric mean (95% C.I.)",[1]; [4],0.22 (0.13-0.36)^∗ fold
same,"fold change in vppA expression, geometric mean (95% C.I.)",[1]; [4],0.17 (0.06-0.43)^∗ fold
same,"fold change in pgA expression, geometric mean (95% C.I.)","[1]; substrate 1 M, relative to control = 1, 2^-ΔΔCt, n = 3, listed as α-D-lactose",4.3 fold
same,"fold change in fimA expression, geometric mean (95% C.I.)",[2]; substrate 1 % (w/v),1.48 (0.27-8.02) fold
same,"fold change in kgp expression, geometric mean (95% C.I.)",[2]; substrate 1 % (w/v),1.95 (0.45-8.59) fold
same,"fold change in partC expression, geometric mean (95% C.I.)",[2]; substrate 1 % (w/v),0.47 (0.07-3.04) fold
same,"fold change in rgpA expression, geometric mean (95% C.I.)",[2]; substrate 1 % (w/v),1.49 (0.70-3.20) fold
same,"fold change in fimA expression, geometric mean (95% C.I.)",[2]; substrate 1 M,0.06 (0.00-1.08)^∗ fold
same,"fold change in kgp expression, geometric mean (95% C.I.)",[2]; substrate 1 M,<LOD
same,"fold change in partC expression, geometric mean (95% C.I.)",[2]; substrate 1 M,0.03 (0.01-0.17)^∗ fold
same,"fold change in rgpA expression, geometric mean (95% C.I.)",[2]; substrate 1 M,0.01 (0.00-4.60)^∗ fold
same,"absolute abundance of P. intermedia (Pi), mean ± SD log (Geq/mL)",P. intermedia; substrate 1% (w/v),8.13 ± 0.25 log (Geq/mL)
same,"absolute abundance of P. intermedia (Pi), mean ± SD log (Geq/mL)","P. intermedia; substrate 1 M in PBS, n = 3",4.05 ± 0.61^∗ log (Geq/mL)
same,"absolute abundance of S. sobrinus, mean ± SD log (Geq/mL)",S. sobrinus; substrate 1% (w/v),5.27 ± 0.24 log (Geq/mL)
same,"absolute abundance of S. sobrinus, mean ± SD log (Geq/mL)","S. sobrinus; substrate 1 M in PBS, n = 3",7.82 ± 0.11^∗ log (Geq/mL)
same,"absolute abundance of S. mitis, mean ± SD log (Geq/mL)",S. mitis; substrate 1% (w/v),2.65 ± 0.00 log (Geq/mL)
same,"absolute abundance of S. mitis, mean ± SD log (Geq/mL)","S. mitis; substrate 1 M in PBS, n = 3",3.17 ± 0.75 log (Geq/mL)
same,"absolute abundance of P. gingivalis (Pg), mean ± SD log (Geq/mL)",P. gingivalis; substrate 1% (w/v),6.93 ± 0.10 log (Geq/mL)
same,"absolute abundance of P. gingivalis (Pg), mean ± SD log (Geq/mL)","P. gingivalis; substrate 1 M in PBS, n = 3",4.26 ± 0.51^∗ log (Geq/mL)
same,"absolute abundance of A. naeslundii (An), mean ± SD log (Geq/mL)",A. naeslundii; substrate 1% (w/v),7.75 ± 0.24 log (Geq/mL)
same,"absolute abundance of A. naeslundii (An), mean ± SD log (Geq/mL)","A. naeslundii; substrate 1 M in PBS, n = 3",4.86 ± 0.19^∗ log (Geq/mL)
same,"absolute abundance of S. oralis, mean ± SD log (Geq/mL)",S. oralis; substrate 1% (w/v),6.6 ± 0.17 log (Geq/mL)
same,"absolute abundance of S. oralis, mean ± SD log (Geq/mL)","S. oralis; substrate 1 M in PBS, n = 3",7.45 ± 0.46 log (Geq/mL)
same,"absolute abundance of A. actinomycetemcomitans (Aa), mean ± SD log (Geq/mL)",A. actinomycetemcomitans; substrate 1% (w/v),9.44 ± 0.41 log (Geq/mL)
same,"absolute abundance of A. actinomycetemcomitans (Aa), mean ± SD log (Geq/mL)","A. actinomycetemcomitans; substrate 1 M in PBS, n = 3",7.87 ± 0.04^∗ log (Geq/mL)
same,"absolute abundance of S. gordonii, mean ± SD log (Geq/mL)",S. gordonii; substrate 1% (w/v),8.4 ± 0.11 log (Geq/mL)
same,"absolute abundance of S. gordonii, mean ± SD log (Geq/mL)","S. gordonii; substrate 1 M in PBS, n = 3",9.31 ± 0.41 log (Geq/mL)
same,"absolute abundance of V. parvula (VP), mean ± SD log (Geq/mL)",V. parvula; substrate 1% (w/v),9.92 ± 0.20 log (Geq/mL)
same,reduction of V. parvula numbers in comparison to the control,V. parvula; substrate 1 M,~ 0.7 log(Geq/mL)
same,"absolute abundance of V. parvula (VP), mean ± SD log (Geq/mL)","V. parvula; substrate 1 M in PBS, n = 3",9.45 ± 0.15^∗ log (Geq/mL)
same,"absolute abundance of S. mutans, mean ± SD log (Geq/mL)",S. mutans; substrate 1% (w/v),7.48 ± 0.14 log (Geq/mL)
same,"absolute abundance of S. mutans, mean ± SD log (Geq/mL)","S. mutans; substrate 1 M in PBS, n = 3",8.00 ± 0.56 log (Geq/mL)
same,"absolute abundance of F. nucleatum (Fn), mean ± SD log (Geq/mL)",F. nucleatum; substrate 1% (w/v),9.39 ± 0.42 log (Geq/mL)
same,"absolute abundance of F. nucleatum (Fn), mean ± SD log (Geq/mL)","F. nucleatum; substrate 1 M in PBS, n = 3",5.49 ± 0.46^∗ log (Geq/mL)
same,"absolute abundance of A. viscosus (Av), mean ± SD log (Geq/mL)",A. viscosus; substrate 1% (w/v),7.89 ± 0.13 log (Geq/mL)
same,"absolute abundance of A. viscosus (Av), mean ± SD log (Geq/mL)","A. viscosus; substrate 1 M in PBS, n = 3",6.78 ± 0.41 log (Geq/mL)
same,"absolute abundance of S. salivarius, mean ± SD log (Geq/mL)",S. salivarius; substrate 1% (w/v),2.65 ± 0.00 log (Geq/mL)
same,"absolute abundance of S. salivarius, mean ± SD log (Geq/mL)","S. salivarius; substrate 1 M in PBS, n = 3",6.95 ± 0.14^∗ log (Geq/mL)
same,"absolute abundance of S. sanguinis, mean ± SD log (Geq/mL)",S. sanguinis; substrate 1% (w/v),8.99 ± 0.54 log (Geq/mL)
same,"absolute abundance of S. sanguinis, mean ± SD log (Geq/mL)","S. sanguinis; substrate 1 M in PBS, n = 3",5.80 ± 1.09 log (Geq/mL)
